Reference: ChEMBL document CHEMBL1154256, “Inhibition of NF-kappaB activation and iNOS induction by ent-kaurane diterpenoids in LPS-stimulated RAW264.7 murine macrophages” (J Nat Prod, 2009)
Calls of active or inactive are those of the source. No cut-off for these calls is given here.

Tests used:
[1] = (§1) Cytotoxicity against mouse RAW264.7 cells assessed as cell viability at 25 uM after 24 hrs by MTT assay; format: cell-based; conditions: RAW264.7 cells, read-out: Activity
RAW264.7 [2] = test: Inhibition of NF-kappaB p65 subunit translocation into nucleus in LPS-stimulated mouse RAW264.7 cells assessed as p65 protein level at 5 uM treated after LPS-stimulation for 24 hrs measured after 60 mins by Western blotting; format: functional, cell-based
RAW264.7 [3] = test: Inhibition of NF-kappaB activation in LPS-stimulated mouse RAW264.7 cells at 1 uM after 24 hrs by Western blotting; format: cell-based
RAW264.7 [4] = test: Inhibition of iNOS mRNA expression in LPS-stimulated mouse RAW264.7 cells at 5 uM after 8 hrs by RT-PCR; format: functional, cell-based
RAW264.7 [5] = test: Cytotoxicity against mouse RAW264.7 cells after 24 hrs by MTT assay; format: cell-based; conditions: RAW264.7, 24 h
RAW264.7 [6] = test: Antiinflammatory activity against mouse RAW264.7 cells assessed as inhibition of LPS-induced nitrite accumulation after 24 hrs by Griess reagent method; format: functional, cell-based; conditions: for IC50: RAW264.7, 24 h
RAW264.7 [7] = test: Inhibition of NF-kappaB p65 subunit translocation into nucleus in LPS-stimulated mouse RAW264.7 cells assessed as p65 protein level at 1 uM pretreated for 1 hr before LPS challenge after 60 mins immunofluorescence microscopy; format: functional, cell-based
[8] = (§2) Cytotoxicity against mouse RAW264.7 cells assessed as cell viability at 5 uM after 24 hrs by MTT assay; format: cell-based; conditions: RAW264.7 cells, read-out: Activity
[9] = Inhibition of NF-kappaB activation in LPS-stimulated mouse RAW264.7 cells assessed as relative luciferase activity after 24 hrs by dual reporter gene assay; format: cell-based; conditions: RAW264.7, 24 h
RAW264.7 [10] = test: Antiinflammatory activity against mouse RAW264.7 cells assessed as inhibition of LPS-induced iNOS expression at 0.1 to 5 uM after 24 hrs by Western blotting; format: functional, cell-based
[11] = (§3) Cytotoxicity against mouse RAW264.7 cells assessed as cell viability at 10 uM after 24 hrs by MTT assay; format: cell-based; conditions: RAW264.7 cells, read-out: Activity
RAW264.7 [12] = test: as §3; format: cell-based; conditions: raw264.7, 24 h, 10 µM
RAW264.7 [13] = test: as §2; format: cell-based; conditions: raw264.7, 24 h, 5 µM
RAW264.7 [14] = test: as §1; format: cell-based; conditions: raw264.7, 24 h, 25 µM
[15] = target: T1, Inhibitor of nuclear factor kappa-B kinase subunit beta (Mus musculus) (UniProt O88351); test: Inhibition of LPS-stimulated IkappaB degradation in mouse RAW264.7 cells assessed as cellular IkappaB level at 5 uM treated after LPS-stimulation for 24 hrs measured after 60 mins by Western blotting; format: cell-based
T1 sequence (whole entry): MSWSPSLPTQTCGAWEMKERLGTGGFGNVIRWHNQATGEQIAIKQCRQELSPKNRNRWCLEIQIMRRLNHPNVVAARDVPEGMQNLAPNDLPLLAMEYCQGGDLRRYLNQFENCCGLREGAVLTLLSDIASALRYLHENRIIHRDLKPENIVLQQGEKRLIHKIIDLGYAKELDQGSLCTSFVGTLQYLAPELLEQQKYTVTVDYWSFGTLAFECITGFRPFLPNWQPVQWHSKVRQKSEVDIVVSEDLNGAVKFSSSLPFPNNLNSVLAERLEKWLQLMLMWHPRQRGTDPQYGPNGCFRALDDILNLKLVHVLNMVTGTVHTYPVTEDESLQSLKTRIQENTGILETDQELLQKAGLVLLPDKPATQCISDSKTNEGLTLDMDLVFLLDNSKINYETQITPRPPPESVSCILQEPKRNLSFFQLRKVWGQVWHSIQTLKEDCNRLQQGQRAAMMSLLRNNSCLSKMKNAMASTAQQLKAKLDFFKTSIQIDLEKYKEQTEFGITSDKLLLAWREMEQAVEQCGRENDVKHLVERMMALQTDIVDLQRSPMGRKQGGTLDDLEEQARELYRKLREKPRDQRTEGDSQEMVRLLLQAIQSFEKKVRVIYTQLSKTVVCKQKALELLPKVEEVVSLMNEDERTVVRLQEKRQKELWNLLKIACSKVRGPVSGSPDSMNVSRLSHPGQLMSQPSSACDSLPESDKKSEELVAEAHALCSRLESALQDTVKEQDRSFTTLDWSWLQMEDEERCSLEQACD

SMILES	viability at 24 h, 25 µM [1]	Activity (RAW264.7 [2])	inhibition (RAW264.7 [3])	inhibition (RAW264.7 [4])	IC50 (RAW264.7 [5])	inhibition (RAW264.7 [6])	IC50 (RAW264.7 [6])	Activity (RAW264.7 [7])	viability at 24 h, 5 µM [8]	IC50 [9]	inhibition (RAW264.7 [10])	viability at 24 h, 10 µM [11]	Activity (RAW264.7 [12])	Activity (RAW264.7 [13])	Activity (RAW264.7 [14])	Activity [15]
C=C1C(=O)[C@]23[C@H](O)[C@H]1CC[C@H]2[C@]12CCC[C@@](C)(COC(C)=O)[C@H]1[C@H](O)[C@]3(O)OC2 [LONGIKAURIN B]	> 97.5%	Active	Active	Active	44800 nM	Dose-dependent effect	435 nM	Active	> 97.5%	1200 nM	Active	> 97.5%	Non-toxic	–	–	–
C=C1C(=O)[C@@]23[C@@H]4O[C@H]5O[C@@]2(O)[C@@H](O)[C@@H]2C(C)(C)CCC[C@]52[C@@H]3[C@@H](OC(C)=O)C[C@@H]14 [XEROPHILUSIN A]	> 97.5%	Active	Active	Active	11300 nM	Dose-dependent effect	600 nM	Active	> 97.5%	1800 nM	Active	> 97.5%	–	Non-toxic	–	–
C=C1C(=O)[C@@]23[C@@H]4O[C@H]5O[C@@]2(O)[C@@H](O)[C@@H]2C(C)(C)CCC[C@]52[C@@H]3CC[C@@H]14 [XEROPHILUSIN B]	> 97.5%	Active	Active	Active	10100 nM	Dose-dependent effect	225 nM	Active	> 97.5%	700 nM	Active	> 97.5%	–	Non-toxic	–	–
C=C1C(=O)[C@]23[C@H](O)[C@H]1C[C@H](OC(C)=O)[C@H]2[C@]12CCCC(C)(C)[C@H]1C(=O)[C@]3(O)[C@H]2O [XEROPHILUSIN F]	> 97.5%	Active	inactive	Active	52400 nM	Dose-dependent effect	673 nM	Active	> 97.5%	1600 nM	Active	> 97.5%	–	–	Non-toxic	Active
